# Results from patent publication US4629491A, “Oxidized sulfur derivatives of diaminophosphinyl compounds as urease inhibitors and urease inhibited urea based fertilizer compositions” (Allied Corporation, priority 1983, dated 1986).
# Test system: soil urease
# Assay: Soil urease inhibition efficacy test (urea remaining after incubation in soil)
# Format: biochemical
# Settings: 40 micrograms per gram soil, incubated at 25° C. for three days, run in triplicate
# Experimental: Efficacy tests were conducted to evaluate the efficacy of certain representative oxidized sulfur derivatives of diaminophosphinyl compounds as urease inhibitors. The inhibition tests were run in New York (Cazenovia Silt loam, pH 7.3) and Wisconsin (Plano silt loam pH 5.3) soils. Evaluations (run in triplicate) consisted of applying 800 micrograms of the test compound in 5 mL of water and 42.8 mg of urea in 1 mL of water to 20 g of air-dry soil in a glass bottle. The bottle was capped with perforated aluminum foil and incubated at 25° C. for three days prior to extraction with 100 mL of a 2M potassium chloride solution containing 0.5 mg of phenylmercuric acetate. The extracts were then analyzed for remaining urea using an autoanalyzer. Percent inhibition was calculated as [formula] where A is urea recovered from unincubated sample (urea added to soil and immediately extracted); B is urea recovered from inhibited sample; and C is urea recovered from the control (uninhibited sample).
# [1] = Cazenovia silt loam (New York) pH 7.3
# [2] = Wisconsin (Plano silt loam) pH 5.3
Structure (SMILES),% Inhibition [1] [%],% Inhibition [2] [%]
Cc1ccc(S(=O)(=O)NP(N)(N)=O)cc1 [N-(Diaminophosphinyl)-p-toluene-sulfonamide],86,51
NP(N)(=O)NS(=O)(=O)c1ccccc1 [N-(Diaminophosphinyl)benzenesulfonamide],91,23
